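Test compounds were applied to cells in 96-well plates for 48 hours at 5 doses. GI50 = concentration required for 50% inhibition of growth. At the TGI there is no net growth.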
How the values were obtained:
Assay in all cases: NCI-60 cell line screen, 48 h
OVCAR-5 ovarian = tested on: OVCAR-5 ovarian
SK-MEL-5 melanoma = tested on: SK-MEL-5 melanoma
MDA-MB-435 = tested on: MDA-MB-435
MALME-3M melanoma = tested on: MALME-3M melanoma
IGROV1 ovarian = tested on: IGROV1 ovarian
SF-295 CNS = tested on: SF-295 CNS
HOP-62 NSCLC = tested on: HOP-62 NSCLC
PC-3 prostate = tested on: PC-3 prostate
SN12C renal = tested on: SN12C renal
HT29 colon = tested on: HT29 colon
NCI-H226 lung = tested on: NCI-H226 lung
NCI/ADR-RES ovarian = tested on: NCI/ADR-RES ovarian
A549 NSCLC = tested on: A549 NSCLC
MCF7 breast = tested on: MCF7 breast
KM12 colon = tested on: KM12 colon
786-0 renal = tested on: 786-0 renal
MDA-MB-468 breast = tested on: MDA-MB-468 breast
HCT-116 colon = tested on: HCT-116 colon
NCI-H522 lung = tested on: NCI-H522 lung
RPMI-8226 leukemia = tested on: RPMI-8226 leukemia
SK-MEL-28 melanoma = tested on: SK-MEL-28 melanoma
CAKI-1 renal = tested on: CAKI-1 renal
U251 CNS = tested on: U251 CNS
UACC-257 melanoma = tested on: UACC-257 melanoma
HL-60(TB) leukemia = tested on: HL-60(TB) leukemia
A498 renal = tested on: A498 renal
EKVX NSCLC = tested on: EKVX NSCLC
OVCAR-3 ovarian = tested on: OVCAR-3 ovarian
HS 578T breast = tested on: HS 578T breast
MOLT-4 leukemia = tested on: MOLT-4 leukemia
OVCAR-8 ovarian = tested on: OVCAR-8 ovarian
SF-539 CNS = tested on: SF-539 CNS
LOX IMVI melanoma = tested on: LOX IMVI melanoma
RXF 393 renal = tested on: RXF 393 renal
HCT-15 colon = tested on: HCT-15 colon
OVCAR-4 ovarian = tested on: OVCAR-4 ovarian
NCI-H23 lung = tested on: NCI-H23 lung
T-47D breast = tested on: T-47D breast
SNB-19 CNS = tested on: SNB-19 CNS
SR leukemia = tested on: SR leukemia
M14 melanoma = tested on: M14 melanoma
K-562 leukemia = tested on: K-562 leukemia
SW-620 colon = tested on: SW-620 colon
HCC-2998 colon = tested on: HCC-2998 colon
SF-268 CNS = tested on: SF-268 CNS
ACHN renal = tested on: ACHN renal
NCI-H460 lung = tested on: NCI-H460 lung
TK-10 renal = tested on: TK-10 renal
SK-OV-3 ovarian = tested on: SK-OV-3 ovarian
UACC-62 melanoma = tested on: UACC-62 melanoma
COLO 205 colon = tested on: COLO 205 colon
BT-549 breast = tested on: BT-549 breast
DU-145 prostate = tested on: DU-145 prostate
HOP-92 NSCLC = tested on: HOP-92 NSCLC
CCRF-CEM leukemia = tested on: CCRF-CEM leukemia

Compound `O=C1Nc2ccc(F)cc2/C1=C/c1cccc(OCc2ccccn2)c1` has a GI50 (OVCAR-5 ovarian) of 16 µM, a TGI (OVCAR-5 ovarian) of 31 µM and a GI50 (SK-MEL-5 melanoma) of 16.6 µM. The TGI (SK-MEL-5 melanoma) was 30.5 µM, the GI50 (MDA-MB-435) was 18.5 µM and the TGI (MDA-MB-435) was 36.6 µM. The GI50 (MALME-3M melanoma) was 17.5 µM, the TGI (MALME-3M melanoma) was 40.1 µM and the GI50 (IGROV1 ovarian) was 17 µM. The TGI (IGROV1 ovarian) was 36.2 µM, the GI50 (SF-295 CNS) was 16 µM and the TGI (SF-295 CNS) was 30.3 µM. For the same compound, the GI50 (HOP-62 NSCLC) was 14.4 µM, the TGI (HOP-62 NSCLC) was 30.8 µM and the GI50 (PC-3 prostate) was 18.7 µM. For the same compound, the TGI (PC-3 prostate) was 48.7 µM, the GI50 (SN12C renal) was 16.8 µM and the TGI (SN12C renal) was 34.4 µM. It also gave a GI50 (HT29 colon) of 17.5 µM, a TGI (HT29 colon) of 34.7 µM and a GI50 (NCI-H226 lung) of 15 µM. It also gave a TGI (NCI-H226 lung) of 29.9 µM, a GI50 (NCI/ADR-RES ovarian) of 16.8 µM and a TGI (NCI/ADR-RES ovarian) of 39.3 µM. It also gave a GI50 (A549 NSCLC) of 18.9 µM, a TGI (A549 NSCLC) of 59.9 µM and a GI50 (MCF7 breast) of 12.1 µM. The TGI (MCF7 breast) was 26.4 µM, the GI50 (KM12 colon) was 19 µM and the TGI (KM12 colon) was 37.3 µM. The GI50 (786-0 renal) was 15 µM, the TGI (786-0 renal) was 29.7 µM and the GI50 (MDA-MB-468 breast) was 14.2 µM. For the same compound, the TGI (MDA-MB-468 breast) was 29.3 µM, the GI50 (HCT-116 colon) was 13.7 µM and the TGI (HCT-116 colon) was 28.5 µM. It also gave a GI50 (NCI-H522 lung) of 15.9 µM, a TGI (NCI-H522 lung) of 33 µM and a GI50 (RPMI-8226 leukemia) of 17.3 µM. For the same compound, the TGI (RPMI-8226 leukemia) was 48 µM, the GI50 (SK-MEL-28 melanoma) was 18.4 µM and the TGI (SK-MEL-28 melanoma) was 37.1 µM. The GI50 (CAKI-1 renal) was 19.6 µM, the TGI (CAKI-1 renal) was 55.5 µM and the GI50 (U251 CNS) was 15.2 µM. For the same compound, the TGI (U251 CNS) was 33.3 µM, the GI50 (UACC-257 melanoma) was 14.4 µM and the TGI (UACC-257 melanoma) was 30.1 µM. For the same compound, the GI50 (HL-60(TB) leukemia) was 16.4 µM, the TGI (HL-60(TB) leukemia) was 39.3 µM and the GI50 (A498 renal) was 54.3 µM. It also gave a TGI (A498 renal) greater than 100 µM, a GI50 (EKVX NSCLC) of 13 µM and a TGI (EKVX NSCLC) of 26.9 µM. For the same compound, the GI50 (OVCAR-3 ovarian) was 15.2 µM, the TGI (OVCAR-3 ovarian) was 32.4 µM and the GI50 (HS 578T breast) was 17.6 µM. It also gave a TGI (HS 578T breast) of 63.3 µM, a GI50 (MOLT-4 leukemia) of 17.5 µM and a TGI (MOLT-4 leukemia) of 40 µM. The GI50 (OVCAR-8 ovarian) was 16.1 µM, the TGI (OVCAR-8 ovarian) was 31.7 µM and the GI50 (SF-539 CNS) was 16.3 µM. For the same compound, the TGI (SF-539 CNS) was 30.4 µM, the GI50 (LOX IMVI melanoma) was 14.9 µM and the TGI (LOX IMVI melanoma) was 29 µM. For the same compound, the GI50 (RXF 393 renal) was 13.3 µM, the TGI (RXF 393 renal) was 26.4 µM and the GI50 (HCT-15 colon) was 16.5 µM. The TGI (HCT-15 colon) was 34.4 µM, the GI50 (OVCAR-4 ovarian) was 22 µM and the TGI (OVCAR-4 ovarian) was 63.3 µM. The GI50 (NCI-H23 lung) was 15 µM, the TGI (NCI-H23 lung) was 28.8 µM and the GI50 (T-47D breast) was 15 µM. For the same compound, the TGI (T-47D breast) was 34 µM, the GI50 (SNB-19 CNS) was 17.2 µM and the TGI (SNB-19 CNS) was 33.2 µM. It also gave a GI50 (SR leukemia) of 16.4 µM, a TGI (SR leukemia) of 42.6 µM and a GI50 (M14 melanoma) of 15.7 µM. The TGI (M14 melanoma) was 31.5 µM, the GI50 (K-562 leukemia) was 17.5 µM and the TGI (K-562 leukemia) was 57.3 µM. The GI50 (SW-620 colon) was 17.2 µM, the TGI (SW-620 colon) was 36 µM and the GI50 (HCC-2998 colon) was 16.3 µM. It also gave a TGI (HCC-2998 colon) of 30.3 µM, a GI50 (SF-268 CNS) of 17.1 µM and a TGI (SF-268 CNS) of 39.3 µM. The GI50 (ACHN renal) was 16.4 µM, the TGI (ACHN renal) was 33.5 µM and the GI50 (NCI-H460 lung) was 19.8 µM. For the same compound, the TGI (NCI-H460 lung) was 44.4 µM, the GI50 (TK-10 renal) was 18.1 µM and the TGI (TK-10 renal) was 32.5 µM. For the same compound, the GI50 (SK-OV-3 ovarian) was 18.6 µM, the TGI (SK-OV-3 ovarian) was 50 µM and the GI50 (UACC-62 melanoma) was 13.6 µM. The TGI (UACC-62 melanoma) was 27.7 µM, the GI50 (COLO 205 colon) was 16.3 µM and the TGI (COLO 205 colon) was 31 µM. For the same compound, the GI50 (BT-549 breast) was 15 µM, the TGI (BT-549 breast) was 30.1 µM and the GI50 (DU-145 prostate) was 18.2 µM. For the same compound, the TGI (DU-145 prostate) was 33.5 µM, the GI50 (HOP-92 NSCLC) was 11.3 µM and the TGI (HOP-92 NSCLC) was 36.3 µM. It also gave a GI50 (CCRF-CEM leukemia) of 25.9 µM and a TGI (CCRF-CEM leukemia) of 71.8 µM.
`CCOC(=O)c1c(C)c2c(n1C)CSc1cc(S(=O)(=O)c3ccccc3)c(=O)[nH]c1-2` showed a GI50 (MDA-MB-468 breast) of 14.2 µM and a TGI (MDA-MB-468 breast) greater than 100 µM.
For `Cc1oc2c(c1C(=O)c1ccccc1)C(=O)c1ccccc1C2=O`, the GI50 (MDA-MB-468 breast) was 1.74 µM and the TGI (MDA-MB-468 breast) was 3.26 µM.
In the case of `Nc1cc(C(F)F)c(-c2nc(N3[C@@H]4CC[C@H]3COC4)nc(N3[C@@H]4CC[C@H]3COC4)n2)cn1`, the GI50 (MDA-MB-468 breast) is reported as 0.249 µM and the TGI (MDA-MB-468 breast) is reported as 3.03 µM.
With `O=[N+]([O-])c1ccc2nc(N/N=C/c3ccc(O)cc3)sc2c1` the GI50 (MDA-MB-468 breast) was 3.91 µM and the TGI (MDA-MB-468 breast) was 20.8 µM.

— PubChem BioAssay (NCI)
